Reference: publication PMC6501426 (Clinical Epigenetics, 2019)

Columns and labels:
[1] = system: DNMT3A protein level in HCT116 cells; assay: Western blot of DNMT3A protein in HCT116; assay type: cell-based, human; conditions: 24 h; MC3353 effect detectable at 0.1 μM
From the text: Cells were lysed in Laemmli buffer; subsequently, the proteins were resolved by sodium dodecyl sulfate-polyacrylamide gel electrophoresis and transferred to a 0.45-μm nitrocellulose membrane (Bio-Rad Laboratories, Hercules, CA). The following primary antibodies were used for immunoblotting: α-E-cadherin (BD Transduction Laboratories, Franklin Lakes, NJ), α-MMP2 (Abcam), α-DNMT3a (Santa Cruz Biotechnologies, Dallas, TX), and α-GAPDH (Millipore Corp., Bedford, MA), used as a loading control. The immune complexes were detected with horseradish peroxidase-conjugated species-specific secondary antiserum (Bio-Rad Laboratories, Milan, Italy) then by enhanced chemiluminescence reaction (Bio-Rad Laboratories, Milan, Italy). Densitometric analysis of protein expression was performed by using the Fiji ImageJ image processing package.
GAPDH was used as a loading control. Blots are representative of two independent experiments

[2] = system: PBMCs (non-proliferating, healthy donors); assay: Cell viability, trypan blue exclusion; assay type: cell-based; conditions: Homo sapiens, PBMC, 48 h of treatment, read-out: IC50 ± SD, cell viability, PBMCs
Procedure: Peripheral blood mononuclear cells (PBMCs) from healthy donors were isolated as previously described. Freshly isolated PBMCs were either cultured and treated at 1.10^6 cells/mL (non-proliferating PBMCs) or stimulated with phytohaemoagglutinin (PHA) and interleukin (IL)-2 (called PHA_PBMCs) to induce blastogenesis in T lymphocytes before treatments as previously described. Briefly, freshly isolated PBMCs were seeded at a concentration of 2.10^6 cells/mL in RMPI 1640 supplemented with 1% antibiotic-antimycotic (Lonza, Verviers, Belgium) and 10% human AB serum (Corning, Fisher scientific, Merelbeke, Belgium). After overnight incubation, floating lymphoid cells were collected and seeded at 1.10^6 cells/mL in RMPI 1640 supplemented with 1% antibiotic-antimycotic, 5% FBS, 10% human AB serum, 1 μg/mL PHA (Gentaur, Kampenhout, Belgium), 50 U/mL IL-2 (Roche, Prophac, Luxembourg City, Luxembourg), 1% non-essential amino acids (Invitrogen, Luxembourg), 1% HEPES (Invitrogen, Luxembourg), 1% sodium pyruvate (Invitrogen, Luxembourg), and 0.1% β-mercaptoethanol (Invitrogen, Luxembourg). After 72 h, the cells were seeded at 1.10^6 cells/mL in the same mitogenic growth medium described just above and treated with test compounds.
(§1) Proliferation and viability of U-937, KG-1, RAJI, PC-3, MDA-MB-231, RPMI1788, PBMCs, and PHA_PBMCs were assessed by trypan blue exclusion assays at the indicated time points. Nuclear morphology changes associated with apoptosis and necrosis were evaluated by fluorescence microscopy after Hoechst and propidium iodide (PI) staining as previously described.
(§2) IC50 values of compounds against cellular viability were determined by using nonlinear regression fitting curves with GraphPad Prism 8 or CalcuSyn software The t test used for statistical analyses was performed with GraphPad Prism 8. All the tests were one-tailed, and a p value < 0.05 was considered statistically significant.

[3] = system: RPMI1788 (normal B lymphocytes); assay: Cell viability, trypan blue exclusion; assay type: cell-based; conditions: Homo sapiens, RPMI-1788; 48 h of treatment; normal cells; read-out: IC50 ± SD, cell viability, RPMI1788
Procedure: (§3) U-937 (acute myeloid leukemia), RAJI (Burkitt’s lymphoma), PC-3 (prostate cancer), and MDA-MB-231 (breast cancer) cell lines were obtained from the Deutsche Sammlung für Mikroorganismen and Zellkulturen (DSZM, Braunschweig, Germany) and were cultured in RPMI 1640 (Lonza, Verviers, Belgium) complemented with 10% FBS (Lonza, Verviers, Belgium) and 1% antibiotic-antimycotic (Lonza). RPMI1788 (normal B lymphocytes) and KG-1 (acute myeloid leukemia) cell lines were obtained from the American Type Culture Collection (ATCC) and were maintained in RPMI 1640 complemented with 20% FBS and IMDM complemented with 10% FBS, respectively. Cell lines were treated with compounds at the indicated concentrations in the exponential growth phase.
as §1
IC50 values of compounds against cellular viability were determined by using nonlinear regression fitting curves with GraphPad Prism 8 or CalcuSyn software The t test used for statistical analyses was performed with GraphPad Prism 8. […]

PC-3 = assay: Cell viability, trypan blue exclusion; assay type: cell-based, human; conditions: Homo sapiens, PC-3; 48 h of treatment; read-out: IC50 ± SD, cell viability, PC-3
Procedure: as §3, §1, §2

MDA-MB-231 = assay: Cell viability, trypan blue exclusion; assay type: cell-based, human; conditions: Homo sapiens, MDA-MB-231; 48 h of treatment; read-out: IC50 ± SD, cell viability, MDA-MB-231
Procedure: as §3, §1, §2

KG-1 = assay: Cell viability, trypan blue exclusion; assay type: cell-based, human; conditions: Homo sapiens, KG-1; 48 h of treatment; read-out: IC50 ± SD, cell viability, KG-1
Procedure: as §3, §1, §2

RAJI = assay: Cell viability, trypan blue exclusion; assay type: cell-based, human; conditions: Homo sapiens, Raji; 48 h of treatment; read-out: IC50 ± SD, cell viability, RAJI
Procedure: as §3, §1, §2

IC50 (PC-3): 5 ± 0.6 µM | IC50 (MDA-MB-231): 8.5 ± 7.2 µM | IC50 (RAJI): 7.8 ± 0.7 µM
Structure (SMILES): Cc1cc(Nc2ccc(NC(=O)c3ccc(Nc4ccnc5ccccc45)cc3)cc2)nc(N)n1 [SGI-1027, reference compound]
DNMT3A protein expression level (western blot), HCT116 [1]: moderate effect on DNMT3A expression level | IC50 [2]: 18.1 ± 6.8 µM | IC50 [3]: 6.7 ± 1.3 µM | IC50 (KG-1): 3.6 ± 0.6 µM
